The values that follow come from patent US12402624B2, “Polymorphs of mesotrione metal chelate and preparation process” (priority 2017, dated 2025).

The data set can be described thus: Particle size distribution (D50, D90) of the polymorph. In kind it is physicochemical. The settings on record: for Particle size D(0.9): D90; for Particle size D(0.5): median diameter D50.
Where [1] appears, read: listed as Mesotrione copper chelate form II-a.
Setting [2] is: listed as Mesotrione copper chelate form II-b.
Where [3] appears, read: listed as Mesotrione copper chelate form I-a.
[4] abbreviates: listed as Mesotrione copper chelate form I-b.

On to “mesotrione copper chelate [Mesotrione copper chelate form II]”, for which the “Particle size D(0.9)” value reads like this: under setting [1], 34.08 μm; under setting [2], 27.33 μm. Also, the “Particle size D(0.5)” value is listed as 17.58 μm under setting [1] and 16.74 μm under setting [2].
As for “mesotrione copper chelate [Mesotrione copper chelate form I]”, under setting [3], the “Particle size D(0.9)” value worked out at 13.02 μm and the “Particle size D(0.5)” value is on record as 7.94 μm. Further, under setting [4], the “Particle size D(0.9)” value amounted to 13.22 μm and the “Particle size D(0.5)” value is on record as 7.62 μm.
